19 compounds from patent US20260347364A1, “PYRAZOLO[4,3-F]QUINAZOLINE DERIVATIVES AS MODULATORS OF G12D MUTANT KRAS USEFUL FOR THE TREATMENT OF CANCER” (JAZZ PHARMACEUTICALS IRELAND LTD., priority 2023, published 2026) can be followed below.

The structures appear in SMILES notation.

For one test, the target named is T1, KRAS WT (Homo sapiens, UniProt P01116).
T1 construct: aa1-188 KRAS WT
The experiment in a line: HTRF nucleotide exchange assay, KRAS WT. Type of test: biochemical. Particulars: class symbols; for IC50: HTRF nucleotide exchange assay (NEA).

The target of another test is T2, KRAS G12D (Homo sapiens, UniProt P01116, G12D).
T2 construct: aa1-188 KRAS WT, HRAS WT, NRAS WT, or KRAS containing the G12D
The experiment in a line: HTRF nucleotide exchange assay, KRAS G12D. The format is biochemical. Particulars: class symbols; for IC50: HTRF nucleotide exchange assay (NEA).

Take `CCc1c(F)ccc2cc(O)cc(-c3cc4nc(OC[C@@]56CCCN5C[C@H](F)C6)nc(N5CCC(C)(OC)CC5)c4c4cn(C)nc34)c12` [Example 119, 5-ethyl-6-fluoro-4-[9-(4-methoxy-4-methyl-1-piperidyl)-2-methyl-7-[[(2R,8S)-2-fluoro-1,2,3,5,6,7-hexahydropyrrolizin-8-yl]methoxy]pyrazolo[4,3-f]quinazolin-4-yl]naphthalen-2-ol]: the IC50 against KRAS WT and on KRAS G12D was 100 to 10000 nM in each case.
With `CCc1c(F)ccc2cc(O)cc(-c3cc4nc(OC[C@@]56CCCN5C[C@H](F)C6)nc(N5CCOCC(O)C5)c4c4cn(C)nc34)c12` (stereo partly drawn) [Example 120, 4-[4-(8-ethyl-7-fluoro-3-hydroxy-1-naphthyl)-2-methyl-7-[[(2R,8S)-2-fluoro-1,2,3,5,6,7-hexahydropyrrolizin-8-yl]methoxy]pyrazolo[4,3-f]quinazolin-9-yl]-1,4-oxazepan-6-ol], the IC50 against KRAS WT and at KRAS G12D was at most 10 nM in each case.
For the compound `CCc1c(F)ccc2cc(O)cc(-c3cc4nc(OC[C@@]56CCCN5C[C@H](F)C6)nc(N5CCOCC(C)C5)c4c4cn(C)nc34)c12` (stereo partly drawn) [Example 121, 5-ethyl-6-fluoro-4-[2-methyl-9-(6-methyl-1,4-oxazepan-4-yl)-7-[[(2R,8S)-2-fluoro-1,2,3,5,6,7-hexahydropyrrolizin-8-yl]methoxy]pyrazolo[4,3-f]quinazolin-4-yl]naphthalen-2-ol], the IC50 against KRAS WT and against KRAS G12D was at most 10 nM throughout.
For the compound `CCc1c(F)ccc2cc(O)cc(-c3cc4nc(OC[C@@]56CCCN5C[C@H](F)C6)nc(N5CCC(CO)C5)c4c4cn(C)nc34)c12` (stereo partly drawn) [Example 122, 5-ethyl-6-fluoro-4-[9-[3-(hydroxymethyl)pyrrolidin-1-yl]-2-methyl-7-[[(2R,8S)-2-fluoro-1,2,3,5,6,7-hexahydropyrrolizin-8-yl]methoxy]pyrazolo[4,3-f]quinazolin-4-yl]naphthalen-2-ol], the IC50 against KRAS WT and at KRAS G12D was at most 10 nM throughout.
In the case of `CCc1c(F)ccc2cc(O)cc(-c3cc4nc(OC[C@@]56CCCN5C[C@H](F)C6)nc(N5CCOCC(O)(C(F)(F)F)C5)c4c4cn(C)nc34)c12` (stereo partly drawn) [Example 123, 4-[4-(8-ethyl-7-fluoro-3-hydroxy-1-naphthyl)-2-methyl-7-[[(2R,8S)-2-fluoro-1,2,3,5,6,7-hexahydropyrrolizin-8-yl]methoxy]pyrazolo[4,3-f]quinazolin-9-yl]-6-(trifluoromethyl)-1,4-oxazepan-6-ol], the IC50 against KRAS WT and against KRAS G12D was 10 to 100 nM throughout.
As for `CCc1c(F)ccc2cc(O)cc(-c3cc4nc(OC[C@@]56CCCN5C[C@H](F)C6)nc(N5CC6CC(O)C(C6)C5)c4c4cn(C)nc34)c12` (stereo partly drawn) [Example 124, 3-[4-(8-ethyl-7-fluoro-3-hydroxy-1-naphthyl)-2-methyl-7-[[(2R,8S)-2-fluoro-1,2,3,5,6,7-hexahydropyrrolizin-8-yl]methoxy]pyrazolo[4,3-f]quinazolin-9-yl]-3-azabicyclo[3.2.1]octan-6-ol], the half-inhibitory concentration (IC50) against KRAS WT and on KRAS G12D was at most 10 nM in each case.
Regarding `CCc1c(F)ccc2cc(O)cc(-c3cc4nc(OC[C@@]56CCCN5C[C@H](F)C6)nc(N5CCCC6(CCO6)C5)c4c4cn(C)nc34)c12` (stereo partly drawn) [Example 125, 5-ethyl-6-fluoro-4-[2-methyl-9-(1-oxa-8-azaspiro[3.5]nonan-8-yl)-7-[[(2R,8S)-2-fluoro-1,2,3,5,6,7-hexahydropyrrolizin-8-yl]methoxy]pyrazolo[4,3-f]quinazolin-4-yl]naphthalen-2-ol], the IC50 against KRAS WT and at KRAS G12D was 10 to 100 nM each time.
Consider `CCc1c(F)ccc2cc(O)cc(-c3cc4nc(OC[C@@]56CCCN5C[C@H](F)C6)nc(N5CCC(O)C(F)(F)CC5)c4c4cn(C)nc34)c12` (stereo partly drawn) [Example 126, 1-[4-(8-ethyl-7-fluoro-3-hydroxy-1-naphthyl)-2-methyl-7-[[(2R,8S)-2-fluoro-1,2,3,5,6,7-hexahydropyrrolizin-8-yl]methoxy]pyrazolo[4,3-f]quinazolin-9-yl]-5,5-difluoro-azepan-4-ol], for which the IC50 at KRAS WT and at KRAS G12D was 10 to 100 nM in each case.
With `CCc1c(F)ccc2cc(O)cc(-c3cc4nc(OC[C@@]56CCCN5C[C@H](F)C6)nc(N5CCC6CC6(O)C5)c4c4cn(C)nc34)c12` (stereo partly drawn) [Example 127, 3-[4-(8-ethyl-7-fluoro-3-hydroxy-1-naphthyl)-2-methyl-7-[[(2R,8S)-2-fluoro-1,2,3,5,6,7-hexahydropyrrolizin-8-yl]methoxy]pyrazolo[4,3-f]quinazolin-9-yl]-3-azabicyclo[4.1.0]heptan-1-ol], the IC50 against KRAS WT and against KRAS G12D was 10 to 100 nM throughout.
For the compound `CCc1c(F)ccc2cc(O)cc(-c3cc4nc(OC[C@@]56CCCN5C[C@H](F)C6)nc(N5CC(C(C)(C)O)C5)c4c4cn(C)nc34)c12` [Example 128, 5-ethyl-6-fluoro-4-[9-[3-(1-hydroxy-1-methyl-ethyl)azetidin-1-yl]-2-methyl-7-[[(2R,8S)-2-fluoro-1,2,3,5,6,7-hexahydropyrrolizin-8-yl]methoxy]pyrazolo[4,3-f]quinazolin-4-yl]naphthalen-2-ol], on KRAS WT, the “KRAS^WT NEA” value is recorded as “D (<49% inhibition at 10 μM)”. The IC50 at KRAS G12D is 100 to 10000 nM.
For the compound `C#CC1(O)CCCN(c2nc(OC[C@@]34CCCN3C[C@H](F)C4)nc3cc(-c4cc(O)cc5ccc(F)c(CC)c45)c4nn(C)cc4c23)C1` (stereo partly drawn) [Example 129, 1-[4-(8-ethyl-7-fluoro-3-hydroxy-1-naphthyl)-2-methyl-7-[[(2R,8S)-2-fluoro-1,2,3,5,6,7-hexahydropyrrolizin-8-yl]methoxy]pyrazolo[4,3-f]quinazolin-9-yl]-3-ethynyl-piperidin-3-ol], the IC50 on KRAS WT and at KRAS G12D was 10 to 100 nM throughout.
`CCc1c(F)ccc2cc(O)cc(-c3cc4nc(OC[C@@]56CCCN5C[C@H](F)C6)nc(N5CCC6(CC6)C(O)C5)c4c4cn(C)nc34)c12` (stereo partly drawn) [Example 130, 6-[4-(8-ethyl-7-fluoro-3-hydroxy-1-naphthyl)-2-methyl-7-[[(2R,8S)-2-fluoro-1,2,3,5,6,7-hexahydropyrrolizin-8-yl]methoxy]pyrazolo[4,3-f]quinazolin-9-yl]-6-azaspiro[2.5]octan-8-ol]: at KRAS WT, the IC50 was 100 to 10000 nM. Further, the “KRAS^G12D NEA” value at KRAS G12D was “D (<49% inhibition at 10 μM)”.
On to `CCc1c(F)ccc2cc(O)cc(-c3cc4nc(OC[C@@]56CCCN5C[C@H](F)C6)nc(N5CCCC(C)(OC)C5)c4c4cn(C)nc34)c12` (stereo partly drawn) [Example 131, 5-ethyl-6-fluoro-4-[9-(3-methoxy-3-methyl-1-piperidyl)-2-methyl-7-[[(2R,8S)-2-fluoro-1,2,3,5,6,7-hexahydropyrrolizin-8-yl]methoxy]pyrazolo[4,3-f]quinazolin-4-yl]naphthalen-2-ol], for which the values for the IC50 against KRAS WT and against KRAS G12D were 100 to 10000 nM and 10 to 100 nM, respectively.
Taken in the same sequence, the figures for `CCc1c(F)ccc2cc(O)cc(-c3cc4nc(OC[C@@]56CCCN5C[C@H](F)C6)nc(N5CCCC(C)(C#N)C5)c4c4cn(C)nc34)c12` (stereo partly drawn) [Example 132, 1-[4-(8-ethyl-7-fluoro-3-hydroxy-1-naphthyl)-2-methyl-7-[[(2R,8S)-2-fluoro-1,2,3,5,6,7-hexahydropyrrolizin-8-yl]methoxy]pyrazolo[4,3-f]quinazolin-9-yl]-3-methyl-piperidine-3-carbonitrile] were 100 to 10000 nM and 100 to 10000 nM.
For `CCc1c(F)ccc2cc(O)cc(-c3cc4nc(OC[C@@]56CCCN5C[C@H](F)C6)nc(N5CCC(C)C(O)C5)c4c4cn(C)nc34)c12` (stereo partly drawn) [Example 133, 1-[4-(8-ethyl-7-fluoro-3-hydroxy-1-naphthyl)-2-methyl-7-[[(2R,8S)-2-fluoro-1,2,3,5,6,7-hexahydropyrrolizin-8-yl]methoxy]pyrazolo[4,3-f]quinazolin-9-yl]-4-methyl-piperidin-3-ol] the same measures were 100 to 10000 nM and 10 to 100 nM.
As for `CCc1c(F)ccc2cc(O)cc(-c3cc4nc(OC[C@@]56CCCN5C[C@H](F)C6)nc(N5CCCC(O)(C(C)C)C5)c4c4cn(C)nc34)c12` (stereo partly drawn) [Example 134, 1-[4-(8-ethyl-7-fluoro-3-hydroxy-1-naphthyl)-2-methyl-7-[[(2R,8S)-2-fluoro-1,2,3,5,6,7-hexahydropyrrolizin-8-yl]methoxy]pyrazolo[4,3-f]quinazolin-9-yl]-3-isopropyl-piperidin-3-ol], the “KRAS^WT NEA” value on KRAS WT is “D (<49% inhibition at 10 μM)”. At KRAS G12D, this compound registered an IC50 of 100 to 10000 nM.
`CCc1c(F)ccc2cc(O)cc(-c3cc4nc(OC[C@@]56CCCN5C[C@H](F)C6)nc(N5CCC5C(C)(C)O)c4c4cn(C)nc34)c12` (stereo partly drawn) [Example 135, 5-ethyl-6-fluoro-4-[9-[2-(1-hydroxy-1-methyl-ethyl)azetidin-1-yl]-2-methyl-7-[[(2R,8S)-2-fluoro-1,2,3,5,6,7-hexahydropyrrolizin-8-yl]methoxy]pyrazolo[4,3-f]quinazolin-4-yl]naphthalen-2-ol]: the IC50 is 10 to 100 nM at KRAS WT and 100 to 10000 nM on KRAS G12D.
For `CCc1c(F)ccc2cc(O)cc(-c3cc4nc(OC[C@@]56CCCN5C[C@H](F)C6)nc(N5CCCC6(CC(O)C6)C5)c4c4cn(C)nc34)c12` (stereo partly drawn) [Example 136, 6-[4-(8-ethyl-7-fluoro-3-hydroxy-1-naphthyl)-2-methyl-7-[[(2R,8S)-2-fluoro-1,2,3,5,6,7-hexahydropyrrolizin-8-yl]methoxy]pyrazolo[4,3-f]quinazolin-9-yl]-6-azaspiro[3.5]nonan-2-ol] the same measures were at most 10 nM and at most 10 nM.
With `CCc1c(F)ccc2cc(O)cc(-c3c(C)c4nc(OCC5(C)CC(OC)CN5)nc(N5CCOCC(C)(O)C5)c4c4cn(C)nc34)c12` (centres unmarked) [Example 137, 4-[4-(8-ethyl-7-fluoro-3-hydroxy-1-naphthyl)-7-[(4-methoxy-2-methyl-pyrrolidin-2-yl)methoxy]-2,5-dimethyl-pyrazolo[4,3-f]quinazolin-9-yl]-6-methyl-1,4-oxazepan-6-ol], the IC50 at KRAS WT and against KRAS G12D was at most 10 nM each time.

A word on the IC50: it is the midpoint of a concentration-inhibition curve. Read a low IC50 as inhibition by little substance.
